From patent EP0115690A1, “Dibenzocycloheptenylidenes” (AMERICAN HOME PRODUCTS CORPORATION, priority 1983, dated 1984)

What was measured:
carrageenan paw edema = test: rat carrageenan edema test (hind paw); assay type: in vivo, male Sprague-Dawley rats; details: for % Change From Control: paw edema 3 hours after carrageenan; for ED50: Rattus norvegicus, po, 3 h, read-out: dose exhibiting a 50% inhibition of edema
Method: Groups of 6-8 male Sprague-Dawley rats weighing between 150-200 grams are used. Compounds of the invention, aspirin and indomethacin are administered orally in 0.5% methylcellulose. Vehicle alone is administered as a control. Sixty minutes after drug administration edema is induced by injection of 0.1 ml. of a 1% carrageenan solution in saline into the subplantar tissue of the rat's right hind paw. Two minutes later, paw volume is measured volumetrically with a plethysmograph and again 3 hours later. The mean volume of swelling for the control group is calculated and compared to the test groups. Percent change in paw edema is calculated and analysed statistically (unpaired, Student's t-test).

[1] = system: adjuvant arthritis (left paw edema); test: rat adjuvant arthritis (daily dosing) assay; assay type: in vivo, Sprague-Dawley rats; details: for % Change of Left Paw Edema at Day 16: daily regimen; for ED50: Rattus norvegicus, po, 384 h, read-out: estimated ED50
Method: The ability of the compounds of the invention to inhibit immunologic-induced (chronic) inflammation is tested in adjuvant arthritis (daily dosing) assay.
Polyarthritis is induced in groups of 6-10 Sprague-Dawley rats weighing between 180-220 g. by a subcutaneous injection into the right paw of dessicated Mycobacterium butyricum or tuberculosis (0.5 mg/0.1 ml) suspended in light mineral oil. Compounds of the invention, aspirin and indomethacin are administered orally in 0.5% methylcellulose using a daily regimen (except for weekends). Both hind paw volumes (ml.) are measured by mercury plethysmograph on day 0 or at the time of injection of the complete adjuvant. Increases in paw volume (viz. edema) are determined for the left paw on day 16. Statistical analysis of differences in paw edemas is performed by using the unpaired, Student's t-test.

[2] = anti-inflammatory activity, comparison of isomers (test not specified); assay type: in vivo; details: E-isomer versus Z-isomer

SMILES: O=C(O)/C=C1/c2ccccc2C=Cc2ccc(Cl)cc21 [Example 1G, Z-(3-Chloro-5H-dibenzo[a,d]cyclohepten-5-ylidene) acetic acid]
- % Change From Control (carrageenan paw edema; oral dose 100-200 mg/kg): -20%
- % Change of Left Paw Edema at Day 16 ([1]; oral dose 25 mg/kg): -28%

SMILES: O=C(O)C=C1c2ccccc2C=Cc2ccc(F)cc21 [Example 9]
- oral doses that inhibit carrageenan paw edema (carrageenan paw edema): 20 to 200 mg/kg
- % Change From Control (carrageenan paw edema; oral dose 200 mg/kg): -58%
- % Change of Left Paw Edema at Day 16 ([1]; oral dose 100-200 mg/kg): -40%

SMILES: O=C(O)/C=C1\c2ccccc2C=Cc2cc(Cl)ccc21 [Example 2H]
- % Change From Control (carrageenan paw edema; oral dose 200 mg/kg): -49%
- % Change of Left Paw Edema at Day 16 ([1]; oral dose 25 mg/kg): -59%

SMILES: C1=Cc2ccccc2C(=Cc2nnn[nH]2)c2ccccc21 [Example 7B, 5-(5H-Dibenzo[a,d]cyclohepten-5-ylidenemethyl) 1H-tetrazole]
- % Change From Control (carrageenan paw edema; oral dose 200 mg/kg): ~-38%

SMILES: COc1ccc2c(c1)C(=CC(=O)O)c1ccccc1C=C2 [Example 4F, (3-Methoxy-5H-dibenzo[a,d]cyclohepten-5-ylidene)acetic acid]
- % Change From Control (carrageenan paw edema; oral dose >200 mg/kg): -50%
- % Change of Left Paw Edema at Day 16 ([1]; oral dose 15 mg/kg): -50%

SMILES: O=C(O)/C=C1\c2ccccc2C=Cc2ccc(Cl)cc21 [Example 1H]
- anti-inflammatory activity relative to its Z-isomer [2]: several times more active
- oral doses that inhibit carrageenan paw edema (carrageenan paw edema): 20 to 200 mg/kg
- % Change From Control (carrageenan paw edema; oral dose 20 mg/kg): -33%
- % Change From Control (carrageenan paw edema; oral dose 60 mg/kg): -53%
- % Change From Control (carrageenan paw edema; oral dose 180 mg/kg): -68%
- % Change of Left Paw Edema at Day 16 ([1]; oral dose 25 mg/kg): -59%

SMILES: O=C(O)C(Cl)=C1c2ccccc2C=Cc2ccccc21 [Example 6E]
- % Change From Control (carrageenan paw edema; oral dose 200 mg/kg): -31%

SMILES: O=C(O)/C=C1/c2ccccc2C=Cc2cc(Cl)ccc21 [Example 2G]
- % Change From Control (carrageenan paw edema; oral dose 200 mg/kg): ~-38%

SMILES: O=C(O)C=C1c2ccccc2C=C(Br)c2ccccc21 [Example 8, E- and Z-(10-bromo-5H-dibenzo[a,d]cyclohepten-5-ylidene) acetic acid]
- % Change From Control (carrageenan paw edema; oral dose 200 mg/kg): -34%
- % Change of Left Paw Edema at Day 16 ([1]; oral dose 25-50 mg/kg): -25 to -50%

SMILES: COc1ccc2c(c1)c(CC(=O)O)c(C)n2C(=O)c1ccc(Cl)cc1 [Indomethacin, reference compound]
- ED50 (carrageenan paw edema): ~5.6 mg/kg
- ED50 [1]: 0.9 mg/kg

SMILES: CC(=O)Oc1ccccc1C(=O)O [aspirin, reference compound]
- ED50 (carrageenan paw edema): ~250 mg/kg
- ED50 [1]: ~140 mg/kg
